Experimental data taken from patent US20170144987A1, “NOVEL CRYSTALLINE POLYMORPHS OF PYRIDINE DERIVATIVE AND METHOD FOR PRODUCING THE SAME” (TEIJIN PHARMA LIMITED, priority 2014, published 2017).
pIC50: −log10 of the molar value.

Legend:
human URAT1 = target: T1, human URAT1 (Homo sapiens, UniProt Q96S37); experiment: Test for inhibition of uric acid transport using human URAT1-expressing cells; format: cell-based; conditions: HEK 293 cells expressing human URAT1; 14C-labeled uric acid 25 μM; uptake 37° C. for 5 min; read-out: IC50 (concentration of the compound at which the uric acid transport rate is inhibited by 50%)
T1 construct: Full-length cDNA of human URAT1 (hURAT1)
T1 sequence (Q96S37 1-553): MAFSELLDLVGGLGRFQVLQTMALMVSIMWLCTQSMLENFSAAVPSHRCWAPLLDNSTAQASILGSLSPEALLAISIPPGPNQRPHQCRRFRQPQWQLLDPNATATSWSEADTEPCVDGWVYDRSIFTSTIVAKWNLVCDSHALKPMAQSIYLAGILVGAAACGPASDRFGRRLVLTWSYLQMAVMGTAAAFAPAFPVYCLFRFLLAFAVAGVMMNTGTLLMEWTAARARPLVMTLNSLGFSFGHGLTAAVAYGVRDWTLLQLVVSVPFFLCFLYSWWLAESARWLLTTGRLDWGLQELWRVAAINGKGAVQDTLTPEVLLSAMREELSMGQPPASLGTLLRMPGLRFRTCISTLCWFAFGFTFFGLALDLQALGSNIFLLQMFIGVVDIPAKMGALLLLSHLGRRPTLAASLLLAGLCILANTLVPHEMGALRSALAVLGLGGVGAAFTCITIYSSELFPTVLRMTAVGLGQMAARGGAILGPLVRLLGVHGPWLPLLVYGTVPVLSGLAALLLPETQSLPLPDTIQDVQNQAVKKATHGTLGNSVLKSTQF
Procedure: Test for Inhibition of Uric Acid Transport Using Human URAT1-Expressing Cells
2-(5-chloropyridin-3-yl)-1-(2,5-dichlorobenzyl)-4-methyl-1H-imidazole-5-carboxylic acid was dissolved in DMSO (produced by Sigma) to a concentration of 20 mM and the concentration was subsequently adjusted to a value desired for use. Full-length cDNA of human URAT1 (hURAT1) (produced by OriGene Technologies, Inc., NCBI Reference Sequence: NM 144585) was subcloned into an expression vector, pCMV6-Kan/Neo (produced by OriGene Technologies, Inc.), and hURAT1 gene was transfected into human embryonic kidney-derived cells (HEK 293 cells) by liposome method using Lipofectamine 2000 (produced by Invitrogen Corporation), whereupon HEK 293 cells expressing human URAT1 gene were selected on the basis of Geneticin resistance. […]
After the medium was removed by aspiration from each well, the medium was replaced with a solution obtained by substituting NaCl in Hank's Balanced Salt Solution (HBSS) with Na gluconate (hereinafter, HBSS/Na-gluconate) and the cells were preincubated at 37° C. for about 10 minutes. […] The cell sample and a liquid scintillation liquid, ULTIMA GOLD (produced by PerkinElmer, Inc.) were mixed and the radioactivity was measured by a liquid scintillation counter (Beckman Coulter, Inc.). […]

Cebus apella = experiment: Drug efficacy evaluation test for Cebus apella (uric acid excretion rate); format: in vivo; conditions: 3 mg/kg to 30 mg/kg in 0.5% methylcellulose, administered from the nasal cavity to the stomach, samples up to 24 hours
Procedure: Drug Efficacy Evaluation Test for Cebus Apella 2-(5-chloropyridin-3-yl)-1-(2,5-dichlorobenzyl)-4-methyl-1H-imidazole-5-carboxylic acid (3 mg/kg to 30 mg/kg) dispersed in a 0.5% methylcellulose solution was administered to Cebus apella from the nasal cavity to the stomach using a disposable catheter and a syringe barrel. Blood samples were taken before administration and 30 minutes, 1 hour, 2 hours, 4 hours, 8 hours, 12 hours, and 24 hours after administration; and urine samples were collected for the time intervals of immediately after to 4 hours after administration, from 4 hours to 8 hours after administration, from 8 hours to 16 hours after administration, and from 16 hours to 24 hours after administration. Concentrations of uric acid and creatinine in the blood and urine samples collected were measured by an automatic analyzer (JEOL Ltd.). Uric acid and […] were measured using L-type Wako UA•F (Wako Pure Chemicals Industries, Ltd.) and L-type Creatine F (Wako Pure Chemicals Industries, Ltd.), respectively. Uric acid clearance was calculated from the uric acid concentrations in blood and urine and, similarly, creatinine clearance was calculated from the creatinine concentrations.

- pIC50 (human URAT1): ≥ 6.70
Structure (SMILES): Cc1nc(-c2cncc(Cl)c2)n(Cc2cc(Cl)ccc2Cl)c1C(=O)O [2-(5-chloropyridin-3-yl)-1-(2,5-dichlorobenzyl)-4-methyl-1H-imidazole-5-carboxylic acid]
- activity to promote uric acid excretion (uric acid excretion rate) (Cebus apella): excellent activity to promote uric acid excretion
